Where no end group is shown, it is not given here.
Assays:
HepG2.2.15 cells [1] = test: MTT assay, HepG2.2.15 cells; assay type: cell-based; conditions: synthesized polypeptide 0.1-100 μM, 48 hr
Text: (§1) Two cell lines were adopted in the experiment. One is constitutive expression HBx of hepatoma cell HepG2 (stable transfected hepatoma cell HepG2 expressing HBx), and the other one is constitutive expression Hepatitis B virus complete genome of hepatoma cell HepG2.2.15 (stable transfected hepatoma cell HepG2 expressing HBV complete genome). Because HBx functions to activate the transcription factor NF-κB, it is possible to detect the inhibition of HBx at the molecular level by reporter gene-based assays. […]
(§2) (1) Plate the cells: suspended the cells at exponential phase (the cells in the above Table 1) in RPMI1640 or DMEM medium with 10% FBS, and plated 4000-5000 cells in a 96-well plate with 100 μl per well; Culture the cells: Within 12 hr for adhesion of cultured cells, different amount of polypeptides plasmids from Step A (0.25 μg, 0.5 μg and 0.75 μg) or different concentrations of synthesized polypeptides from Example 1 (0.1 μM, 1 μM, 10 μM and 100 μM) were transfected with 8 wells for each concentration, and were incubated for 48 hr in the same condition. 0.3 μg pEGFP-C2 plasmids and 1 μg p-Anti-HBxP1 # were cotransfected, and using a fluorescence microscope to check for cells containing the GFP plasmid after 24 hr to make sure the percentage of cells that contain GFP is over 70%; […]
(§3) (4) Comparison: Read in an ELISA reader at 490 nm to measure the absorbance for each well. […]

[2] = Polypeptide drugs acute toxicity test; assay type: in vivo, Kunming white mice; conditions: 1 g/kg tail intravenous injection; observed 24 hr
Description: Control group and experimental group contained 10 Kunming white mice, with 5 females and 5 males, respectively. Experimental group injected Anti-HBxP1 # with the concentration of 1 g/kg ([…] dried polypeptide drug solved in 0.124 ml ddH2O) by tail intravenous injection; control group, injected 0.25 ml ddH2O. Consecutively observed the mice for 24 hr after injection.

L-O2 = test: MTT assay, L-O2 cells; assay type: cell-based; conditions: L-O2 (no HBx); synthesized polypeptide 0.1-100 μM, 48 hr
Description: (§4) (1) Plate the cells: suspended the cells at exponential phase (the cells in the above Table 1) in RPMI1640 or DMEM medium with 10% FBS, and plated 4000-5000 cells in a 96-well plate with 100 μl per well; Culture the cells: Within 12 hr for adhesion of cultured cells, different amount of polypeptides plasmids from Step A (0.25 μg, 0.5 μg and 0.75 μg) or different concentrations of synthesized polypeptides from Example 1 (0.1 μM, 1 μM, 10 μM and 100 μM) were transfected with 8 wells for each concentration, and were incubated for 48 hr in the same condition. 0.3 μg pEGFP-C2 plasmids and 1 μg p-Anti-HBxP1 # were cotransfected, and using a fluorescence microscope to check for cells containing the GFP plasmid after 24 hr to make sure the percentage of cells that contain GFP is over 70%;
(§5) (2) Coloration: added 20 μl MTT solution (5 mg/ml MTT in PBS buffer (pH7.4)) for each well;
(§6) (3) Incubated for 4 hr, and carefully aspirate off the supernatant from the wells. Added 150 μl DMSO into each well, shaking for 10 min until the crystals dissolved;
(§7) (4) Comparison: Read in an ELISA reader at 490 nm to measure the absorbance for each well. Results were calculated by using Student's t-test.

HepG2 = test: MTT assay, HepG2 cells; assay type: cell-based; conditions: HepG2 (no HBx); synthesized polypeptide 0.1-100 μM, 48 hr
Description: as §4, §5, §6, §7

L-O2-X cells = test: MTT assay, L-O2-X cells; assay type: cell-based; conditions: synthesized polypeptide 0.1-100 μM, 48 hr
Description: as §4, §5, §6, §7

HepG2.2.15 cells [3] = test: Inoculation experiment in nude mice, HepG2.2.15 cells; assay type: in vivo
Description: (§8) Suspended the HepG2-X or HepG2.2.15 cells at exponential phase by treating with trypsin, and counted the number of cells to dilute to 1×10^7 cells/ml with physiological saline, and then store in the ice water. 12 Mice used were 4- to 6-week-old BALB/C females, and were randomly divided into two groups: @Control group, injected 0.2 ml diluted cells to the armpit of left forelimb for each mouse, and only injected 0.5 ml ddH2O (without polypeptide drugs); 0 experimental group (the treatment dose was 10 mg/kg), injected 0.2 ml diluted cells to the armpit of left forelimb for each mouse, and within 7 days after the injection, tumor volume (V=L×W^2×0.5) reached to 100 mm^3. And then, injected the above mentioned polypeptide drugs (dried polypeptide drug solved in 0.5 ml ddH2O) once in two day, total 10 times, and recorded the tumor volume before injection. Within 24 hr after the last dose, weighted the mice, and killed the mice to weight the tumor tissue, anti-tumor rate was calculated as follow: […]

HepG2-X cells [4] = test: Inoculation experiment in nude mice, HepG2-X cells; assay type: in vivo
Description: as §8

HepG2-X cells [5] = test: MTT assay, HepG2-X cells; assay type: cell-based; conditions: synthesized polypeptide 0.1-100 μM, 48 hr
Text: as §1, §2, §3

[6] = test system: NF-κB promoter (HBx-activated); test: Dual-luciferase reporter gene analysis (pGL3-NF-κB); assay type: cell-based; conditions: incubation with synthesized polypeptide 0.1-100 μM, 24 hr
Text: Two cell lines were adopted in the experiment. One is constitutive expression HBx of hepatoma cell HepG2 (stable transfected hepatoma cell HepG2 expressing HBx), and the other one is constitutive expression Hepatitis B virus complete genome of hepatoma cell HepG2.2.15 (stable transfected hepatoma cell HepG2 expressing HBV complete genome). Because HBx functions to activate the transcription factor NF-κB, it is possible to detect the inhibition of HBx at the molecular level by reporter gene-based assays. Due to the role of HBx on promoting the growth and proliferation of hepatoma cells, it can test the effects of the polypeptides on the proliferation of HepG2-X cell and HepG2.2.15 cell by (3-(4,5-dimethylthiazol-2-yl)-2,5-diphenyltetrazolium bromide (MTT).
(1) Plated the cells at exponential phase (the cells in the above Table 1) at a density 0.75×10^5 cells/ml in a 24-well plate with 500 μl per well. Ideally cells should be 90% confluent prior to transfection;
(2) Reporter gene vectors containing promoter (pGL3-NF-κB, 0.3 μg, purchased from Yuanhaoping (Tianjin) Biological Technology Co., Ltd) were transfected into cells by using lipofectamine transfection reagent, and Renilla luciferase expressing vectors (pRL-TK, 0.1 μg, purchased from Promega) were transfected as controls. Simultaneously, different amount of polypeptides plasmids from Step A (0.25 μg, 0.5 μg and 0.75 μg) or different concentrations of synthesized polypeptides from Example 1 (0.1 μM, 1 μM, 10 μM and 100 μM) were added, and repeated each concentration in three wells;
(3) After transfection for 48 hr (or after incubation with artificial synthesized polypeptide Anti-HBxP1 # for 24 hr), washed the cells with PBS for three times;
(4) Added 100 μl 1× Passive Lysis Buffer (PLB) into transfected cells per well, and lysed the cell at room temperature for 15 min. Transferred the cell lysate to a 1.5 ml Eppendorf (EP) tube;
(5) Centrifuged at 12,000 rpm for 30 min, and transferred the supernatant to a fresh EP tube;
(6) Added an aliquot of cell lysate into each EP tube with 100 μl Luciferase Assay Buffer II (LARII), and mixed well;
(7) Immediately put the EP tubes into a Luminometer (manufactured by Turner Biosystems). Within 10 sec after 2 sec balance, measured the luminescence.
(8) Added 100 μl fluorescence bleacher. Firefly luciferase was quenched, while Renilla luciferase started to react.
(9) Measured the luminescence within 10 sec.
The relative activity was the ratio of the value of the first luminescence to the value of the second luminescence.
Results shown are representative of three independent experiments according to Mean±SD, and statistical significance was calculated using Student's t test.

## GSAVMFSSKERG [Anti-HBxP1 #]
HepG2.2.15 cells [1]
  growth of the hepatoma cells (MTT assay): inhibits
[2]
  behaviors of mice (acute toxicity): do not have abnormal behaviors
  changes in weight compared with control group (acute toxicity): no abnormal changes in weight
L-O2
  growth of the hepatoma cells (MTT assay): no effect
HepG2
  growth of the hepatoma cells (MTT assay): no effect
L-O2-X cells
  growth of the hepatoma cells (MTT assay): inhibits
HepG2.2.15 cells [3]; 10 mg/kg, P<0.01
  growth and proliferation of HepG2.2.15 cells in nude mice: inhibits
HepG2.2.15 cells [3]; HepG2.2.15 tumor, 10 mg/kg once in two day, 10 times
  Anti-tumor rate (%): 41.27%
HepG2.2.15 cells [3]; HepG2.2.15 tumor, 10 mg/kg once in two day, 10 times, within 24 hr after last dose
  Tumor weight (X ± S, g): 0.37 ± 0.19 g
HepG2.2.15 cells [3]; mouse body weight after 10 mg/kg once in two day, 10 times, HepG2.2.15 tumor
  Weight (X ± S, g) After dose: 21.08 ± 0.81 g
HepG2.2.15 cells [3]; mouse body weight before dose, HepG2.2.15 tumor, experimental group
  Weight (X ± S, g) Before dose: 15.17 ± 1.17 g
HepG2-X cells [4]; 10 mg/kg, P<0.01
  growth and proliferation of HepG2-X cells in nude mice: inhibits
HepG2-X cells [4]; HepG2-X tumor, 10 mg/kg once in two day, 10 times
  Anti-tumor rate (%): 60.22%
HepG2-X cells [4]; HepG2-X tumor, 10 mg/kg once in two day, 10 times, within 24 hr after last dose
  Tumor weight (X ± S, g): 0.37 ± 0.14 g
HepG2-X cells [4]; mouse body weight after 10 mg/kg once in two day, 10 times, HepG2-X tumor
  Weight (X ± S, g) After dose: 21.08 ± 0.74 g
HepG2-X cells [4]; mouse body weight before dose, HepG2-X tumor, experimental group
  Weight (X ± S, g) Before dose: 15.75 ± 0.99 g
HepG2-X cells [5]
  growth of the hepatoma cells (MTT assay): inhibits
[6]; HepG2 (no HBx)
  activity of NF-κB promoter: no effect
[6]; HepG2-X cells
  activity of NF-κB promoter: inhibits
[6]; HepG2.2.15 cells
  activity of NF-κB promoter: inhibits
[6]; L-O2 (no HBx)
  activity of NF-κB promoter: no effect
[6]; L-O2-X cells
  activity of NF-κB promoter: inhibits

Source: US20210113685A1, “POLYPEPTIDE DRUG AGAINST HEPATITIS B VIRUS PROTEIN” (priority 2011, published 2021)
